Molecules are shown by their SMILES. Like-named read-outs stand apart in the source and are kept apart here. Bounds are passed on as bounds.

As a reminder, the solubility is the concentration that dissolves in the medium under given conditions.

The test system of one data set is CV1-P cells. In words: Growth inhibition by 5-fluoroorotate, CV1-P cells (72 hours). The data set is classed as cell-based. Particulars: free drug mean of 3 determinations, liposomes from individual growth inhibition curves, read-out: IC50 (concentration of the drug that inhibits cell growth by 50%). The protocol: (§1) All phospholipids (Avanti, Birmingham, Ala.) were used without further purification. Cholesterol (Sigma, St. Louis, Mo.) was recrystallized four times with methanol. All lipids were stored under argon in chloroform solution in sealed ampoules until use. Liposomes were prepared by reverse-phase evaporation (Szoka and Papahadjopoulos (1978) Proc. Natl. Acad. Sci. U.S.A. 75:4194-4198), and extrusion (Szoka et al. (1980) Biochem. et Biophys. Acta. 601:559-571). Small liposomes were made by extensive sonication of lipid suspensions. The unencapsulated drug was removed by gel filtration with Sephadex® G75 (Pharmacia). Lipid concentration was measured by phosporous analysis as described by Bartlett (1959) J. Biol. chem. 234:466-468. The encapsulated drug was measured using a molar extinction coefficient of 7100 in 0.1N HCl. A liposome sample was extracted (Bligh et al. (1959) Can. J. Biochem. Physiol. 37:[…]), the upper phase was acidified with HCl, and its absorbance was meausred. L929 murine fibroblasts and CV1-P cells were obtained and grown as previously described by Heath et al. (1983) Proc. Natl. Acad. Sci. U.S.A. 80:1377-1381 and Fraley et al. (1980) J. Biol. Chem. 255:10431-10435, respectively. The IC50 of the liposome preparations was measured by growth inhibition as previously described by Heath et al. (1983) supra. […]

In a further data set the test system is L929 murine fibroblasts. The experiment in a line: Growth inhibition by 5-fluoroorotate, L929 murine fibroblasts (48 hours). In kind it is cell-based. Particulars: free drug mean of 4 determinations, liposomes from individual growth inhibition curves, read-out: IC50 (concentration of the drug that inhibits cell growth by 50%). How it is done:
as §1

The next data set can be described thus: Aqueous solubility. In kind it is physicochemical. Particulars: water, read-out: maximum aqueous solubility.

In the case of `O=C(O)c1[nH]c(=O)[nH]c(=O)c1F` [Free Drug, 5-fluoroorotate], the IC50 in the data set on CV1-P cells was determined as 7000 nM; in the data set on L929 murine fibroblasts (L929, 48 hours) it was 1100 ± 300 nM; with L929 murine fibroblasts (Mus musculus, L929, 48 h), 1000 nM.
On to `O=C([O-])c1[nH]c(=O)[nH]c(=O)c1F.[Na+]` [Sodium 5-fluoroorotate], for which the solubility in “Aqueous solubility” worked out at 15 mM.
On to `O=C([O-])c1[nH]c(=O)[nH]c(=O)c1F.[Li+]` [lithium salt, lithium 5-fluoroorotate], for which, in the data set “Aqueous solubility”, the solubility was at least 50 mM.
